Data published in US7494996B2 (priority 2000, dated 2009).

Key:
Sphaerotheca fuliginea = test: Cucumber Powdery Mildew (CPM) protectant test in the greenhouse; assay type: in vivo; conditions: 100 is total disease control, 0 is no disease control; for Cucumber Powdery Mildew (CPM) protectant fungicide data, percent control: 300 g/ha
Description: Plants used in the fungicide testing program were grown in 2-¼-inch (5.7-cm). square pots containing RediEarth propagation substrate. The plants were raised under greenhouse conditions. The rice plants were 12-days-old and cucumbers were 13-days-old at the time of spraying with chemical treatments.
The sample of the experimental chemical was weighed and dissolved in an acetone-methanol-water solution (A/M/W at 1:1:2 ratio by volume).
After sprayer calibration, the test solutions were poured into the fungicide sprayer. The fungicide sprayer contains three spray nozzles, located approximately 10 cm above and to the sides of the plants. The spray produced by the nozzles results in uniform coverage of both the upper and lower parts of the plant leaves. After spraying, the treated plants were placed in a drying chamber for 4 hours, prior to sorting.
Cucumber Powdery Mildew (CPM), caused by the fungus Sphaerotheca fuliginea, was maintained on large cucumber plants. For inoculum preparation, five to eight leaves depending on size, completely covered with powdery mildew spores, were collected. The leaves were placed in a glass jar and covered with 500 ml of water, containing 5 drops of Tween-80. The material was filtered through two layers of cheesecloth to remove leaf fragments. The spore count was adjusted to 2×10^5 spores per ml.
Cucumber plants, cv. “Bush Champion,” were used for this test. The plants were thinned to one per pot after the cotyledons were fully developed. Two days before the test, the small leaves and meristem region were removed, leaving only the cotyledons and one large true leaf.
The protectant tests required that the cucumber plants be inoculated 1 day after spraying with the chemical treatment. The plants were inoculated with a hand-held spray bottle with the suspension of fungal spores. The leaves were lightly misted on the upper surface from two different spray directions. Disease development occurred in the greenhouse.
After seven days, the plants were evaluated for percent of disease control. The results are reported as percent control; 100 is total disease control, 0 is no disease control.

Pyricularia oryzae = test: whole plant or invertebrate; assay type: in vivo; conditions: 100 is total disease control, 0 is no disease control; for Rice Blast (RB) protectant fungicide data, percent control: 300 g/ha, greenhouse

| Compound | Cucumber Powdery Mildew (CPM) protectant fungicide data, percent control (Sphaerotheca fuliginea) [percent control] | Rice Blast (RB) protectant fungicide data, percent control (Pyricularia oryzae) [percent control] | pest or weed control at 300 g/ha (Sphaerotheca fuliginea; Podosphaera fuliginea, topical, 168 h, read-out: Cucumber Powdery Mildew (CPM) protectant fungicide data, percent control) [%] | pest or weed control at 300 g/ha (Pyricularia oryzae; Pyricularia oryzae, topical, 144 h, read-out: Rice Blast (RB) protectant fungicide data, percent control, protectant, 300 g/ha, greenhouse) [%] |
| --- | --- | --- | --- | --- |
| O=c1cnc(-c2ccc(Cl)c(Cl)c2)nn1CC1CC1 [Compound 272] | 80 | 100 |  |  |
| CCCCCN1N=C(c2ccc(Cl)c(Cl)c2)NCC1=O [Compound 197] | 75 | 99 |  |  |
| O=C1CNC(c2ccccc2F)=NN1CC(F)(F)F [Compound 96] | 75 | 50 |  |  |
| O=C1CNC(c2ccc3ccccc3c2)=NN1CC(F)(F)F [Compound 143] | 50 | 98 |  |  |
| O=C1CNC(c2cccc(F)c2)=NN1CC(F)(F)F [Compound 84] | 85 | 80 |  |  |
| Cc1cccc(-n2nc(-c3cccc(Cl)c3)ncc2=O)c1 [Compound 278] | 0 | 85 |  |  |
| C#CCN1CC(=O)N(CC(F)(F)F)N=C1c1cc(Cl)cc(Cl)c1 [Compound 169] | 0 | 50 |  |  |
| O=C1CN(C(=O)Oc2ccccc2)C(c2cc(Cl)cc(Cl)c2)=NN1CC(F)(F)F [Compound 193] | 0 | 80 |  |  |
| CCC#CCN1CC(=O)N(CCCC)N=C1c1ccc(Cl)c(Cl)c1 [Compound 180] | 90 | 95 |  |  |
| CCOC(=O)N1N=C(c2cccc(Cl)c2)NCC1=O [Compound 198] | 0 | 80 |  |  |
| COc1c(Br)cc(C2=NN(CC(F)(F)F)C(=O)CN2)cc1Br [Compound 158] | 0 | 85 |  |  |
| COC(=O)SN1CC(=O)N(CC(F)(F)F)N=C1c1cc(Cl)cc(Cl)c1 [Compound 292] | 75 | 99 |  |  |
| O=C1CNC(c2cccc(F)c2)=NN1CC1CC1 [Compound 223] | 80 | 95 |  |  |
| C=COC(=O)N1CC(=O)N(CC(F)(F)F)N=C1c1cc(Cl)cc(Cl)c1 [Compound 113] | 75 | 99 |  |  |
| O=C1CNC(c2ccc(F)cc2)=NN1CC(F)(F)F [Compound 149] | 75 | 95 |  |  |
| CCCCN1N=C(c2ccc(Cl)c(Cl)c2)N(C=CS(=O)(=O)c2ccccc2)CC1=O [Compound 13, 1-n-butyl-3-(3.4-dichlorophenyl)-4-(2-phenylsulfonylethene)-4,5-dihydro-1,2,4-triazin-6-one] | 0 | 95 |  |  |
| O=C1CN(CC2CC2)C(c2ccc(F)c(Br)c2)=NN1CC1CC1 [Compound 219] | 75 | 50 |  |  |
| CCCCCCN1N=C(c2ccc(Cl)cc2)NCC1=O [Compound 55] | 50 | 90 |  |  |

| Compound | Cucumber Powdery Mildew (CPM) protectant fungicide data, percent control (Sphaerotheca fuliginea) [percent control] | Rice Blast (RB) protectant fungicide data, percent control (Pyricularia oryzae) [percent control] | pest or weed control at 300 g/ha (Sphaerotheca fuliginea; Podosphaera fuliginea, topical, 168 h, read-out: Cucumber Powdery Mildew (CPM) protectant fungicide data, percent control) [%] | pest or weed control at 300 g/ha (Pyricularia oryzae; Pyricularia oryzae, topical, 144 h, read-out: Rice Blast (RB) protectant fungicide data, percent control, protectant, 300 g/ha, greenhouse) [%] |
| --- | --- | --- | --- | --- |
| N#Cc1cccc(C2=NN(CC(F)(F)F)C(=O)CN2)c1 [Compound 176] | 50 | 50 |  |  |
| Cc1cc(C)cc(C2=NN(CC(F)(F)F)C(=O)CN2)c1 [Compound 296] | 75 | 98 |  |  |
| O=C1CNC(c2ccc(Cl)c(Cl)c2)=NN1c1cccc(Cl)c1 [Compound 196] | 0 | 99 |  |  |
| C=CC1NC(c2ccc(Cl)c(Cl)c2)=NN(CCCC)C1=O (stereo not drawn) [Compound 202] | 0 | 90 |  |  |
| CCCCOc1ccc(C2=NN(CC(F)(F)F)C(=O)CN2)cc1 [Compound 155] | 85 | 90 |  |  |
| CCCCN1N=C(c2ccc(C3=NN(CCCC)C(=O)CN3)cc2)NCC1=O [Compound 230] |  |  | 0 | 75 |
| C=CC(=O)N1CC(=O)N(CC(F)(F)F)N=C1c1cc(Cl)cc(Cl)c1 [Compound 137] | 0 | 85 |  |  |
| O=C1CNC(c2cc(Cl)nc(Cl)c2)=NN1Cc1ccccc1 [Compound 190] | 0 | 80 |  |  |
| CCCCN1N=C(C)NC(c2ccc(C)cc2)C1=O (stereo not drawn) [Compound 75] | 85 | 0 |  |  |
| CCCCN1N=C(c2c(Cl)cncc2Cl)NCC1=O [Compound 121] | 0 | 80 |  |  |
| CCCCC1=NN(c2ccc(Cl)cc2)C(=O)CN1 [Compound 204] | 85 | 75 |  |  |
| CCC#CCn1nc(-c2ccc(Cl)cc2)nc(C)c1=O [Compound 237] | 95 | 0 |  |  |
| CCCCn1nc(-c2ccccc2O)ncc1=O [Compound 287] | 0 | 80 |  |  |
| CCCCN1N=C(c2ccc(C)c(Cl)c2)NCC1=O [Compound 294] | 80 | 100 |  |  |
| O=C1CN(CC2CC2)C(c2cccc(Br)c2)=NN1CC1CC1 [Compound 224] | 50 | 75 |  |  |
| C#CCN1CC(=O)N(CC(F)(F)F)N=C1c1cccc(C(F)(F)F)c1 [Compound 89] | 0 | 75 |  |  |
| COc1ccc(C2=NN(CC(F)(F)F)C(=O)C(OC)N2)cc1 (stereo not drawn) [Compound 39] | 85 | 99 |  |  |
| C=CC(=O)N1CC(=O)N(CCCC)N=C1c1cc(Cl)cc(Cl)c1 [Compound 138] | 0 | 99 |  |  |
